Reference: patent US20240425479A1, “HALO-SUBSTITUTED AMINO AZA-HETEROARYL COMPOUNDS AS INHIBITORS OF THE HAEMATOPOIETIC PROGENITOR KINASE 1 (HPK1)” (priority 2021, published 2024)

Legend:
[1] = molecular target: T1, Recombinant (1-346) HPK1 (h) (Homo sapiens, UniProt Q92918); assay: HPK1 human STE kinase enzymatic radiometric assay; format: biochemical; conditions: read-out: HPK1 IC50 nM Range
T1 construct: Recombinant (1-346) HPK1 (h) is incubated with 8 mM MOPS pH 7.0
T1 sequence (Q92918 1-346): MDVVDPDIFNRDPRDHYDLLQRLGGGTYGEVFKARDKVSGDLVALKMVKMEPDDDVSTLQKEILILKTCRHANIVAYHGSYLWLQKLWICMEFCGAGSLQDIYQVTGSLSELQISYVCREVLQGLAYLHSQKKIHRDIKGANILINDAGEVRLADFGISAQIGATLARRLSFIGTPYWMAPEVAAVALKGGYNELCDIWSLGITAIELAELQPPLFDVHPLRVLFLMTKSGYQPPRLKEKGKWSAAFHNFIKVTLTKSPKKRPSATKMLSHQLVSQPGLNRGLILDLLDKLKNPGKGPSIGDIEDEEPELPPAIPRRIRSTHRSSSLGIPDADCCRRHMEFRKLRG
Summary of the method: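 Recombinant HPK1 (1-346) incubated 40 min at RT with 0.33 mg/mL myelin basic protein and [gamma-33P]-ATP in 8 mM MOPS pH 7.0, 0.2 mM EDTA, 10 mM Mg acetate; reaction started with Mg/ATP. Stopped with 0.5% phosphoric acid, spotted on P30 filtermat, washed, scintillation counted. Compounds tested as 9-point 3-fold dilutions.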

Lck (h) = Lck (h) (Homo sapiens, UniProt P06239); assay: Lck human STE kinase enzymatic radiometric assay; format: biochemical; conditions: read-out: Lck IC50 nM Range
Chain of Lck (h) (P06239 whole entry): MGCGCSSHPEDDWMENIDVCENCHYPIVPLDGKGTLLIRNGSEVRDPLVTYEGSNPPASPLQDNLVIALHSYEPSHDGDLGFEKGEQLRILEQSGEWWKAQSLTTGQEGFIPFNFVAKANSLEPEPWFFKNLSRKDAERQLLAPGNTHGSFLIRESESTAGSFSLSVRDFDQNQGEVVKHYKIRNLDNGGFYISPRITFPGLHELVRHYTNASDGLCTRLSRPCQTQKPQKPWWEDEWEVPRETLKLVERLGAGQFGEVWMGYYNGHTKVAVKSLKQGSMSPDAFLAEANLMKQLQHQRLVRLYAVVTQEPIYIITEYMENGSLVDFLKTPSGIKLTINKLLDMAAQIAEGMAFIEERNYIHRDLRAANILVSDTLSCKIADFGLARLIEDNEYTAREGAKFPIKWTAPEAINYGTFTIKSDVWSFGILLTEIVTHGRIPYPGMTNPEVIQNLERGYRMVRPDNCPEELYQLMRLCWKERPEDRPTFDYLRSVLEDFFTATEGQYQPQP
Experimental: (b) Lck Human STE Kinase Enzymatic Radiometric Assay
Lck (h) is incubated with 50 mM Tris pH 7.5, 0.1 mM EGTA, 0.1 mM Na3VO4, 250 uM KVEKIGEGTYGVVYK (Cdc2 peptide), 10 mM MgAcetate and [gamma-33P]-ATP (specific activity and concentration as required). The reaction is initiated by the addition of the Mg/ATP mix. After incubation for 40 minutes at room temperature, the reaction is stopped by the addition of phosphoric acid to a concentration of 0.5%, 10 μL of the reaction is then spotted onto a P30 filtermat and washed four times for 4 minutes in 0.425% phosphoric acid and once in methanol prior to drying and scintillation counting. For more details on the kinase assay procedures see: Gao, Y. et. al.; Biochem J., 451 (2): 313-328, 2013.

Row | IC50 [1] [nM] | IC50 (Lck (h)) [nM] | Structure (SMILES)
1 | 0.1 to 10 | > 1000 | CC(C)N1CCN(c2ccc(-c3nc(-c4ccc5c(=O)[nH]ccc5c4)c(N)nc3F)cc2)CC1 [Example I-20, 6-(3-amino-5-fluoro-6-(4-(4-isopropylpiperazin-1-yl)phenyl)pyrazin-2-yl)isoquinolin-1(2H)-one]
2 | 0.1 to 10 | 101 to 1000 | CC(C)N1CCN(c2ccc(-c3nc(-c4cc(F)c5c(=O)[nH]ccc5c4)c(N)nc3F)cc2)CC1 [Example I-21, 6-(3-amino-5-fluoro-6-(4-(4-isopropylpiperazin-1-yl)phenyl)pyrazin-2-yl)-8-fluoroisoquinolin-1(2H)-one]
3 | 0.1 to 10 | 101 to 1000 | CC(C)N1CCN(c2ccc(-c3nc(-c4cc5cc[nH]c(=O)c5cc4F)c(N)nc3F)cc2)CC1 [Example I-22, 6-(3-amino-5-fluoro-6-(4-(4-isopropylpiperazin-1-yl)phenyl)pyrazin-2-yl)-7-fluoroisoquinolin-1(2H)-one]
4 | 0.1 to 10 | > 1000 | Nc1nc(F)c(-c2ccc(N3CCN(CC4CC4)CC3)cc2)nc1-c1ccc2c(=O)[nH]ccc2c1 [Example I-23, 6-(3-amino-6-(4-(4-(cyclopropylmethyl)piperazin-1-yl)phenyl)-5-fluoropyrazin-2-yl)isoquinolin-1(2H)-one]
5 | 0.1 to 10 | 101 to 1000 | Nc1nc(F)c(-c2ccc(N3CCN(CC4CC4)CC3)cc2)nc1-c1cc(F)c2c(=O)[nH]ccc2c1 [Example I-24, 6-(3-amino-6-(4-(4-(cyclopropylmethyl)piperazin-1-yl)phenyl)-5-fluoropyrazin-2-yl)-8-fluoroisoquinolin-1(2H)-one]
6 | 0.1 to 10 | 101 to 1000 | Nc1nc(F)c(-c2ccc(N3CCN(CC4CC4)CC3)cc2)nc1-c1cc2cc[nH]c(=O)c2cc1F [Example I-25, 6-(3-amino-6-(4-(4-(cyclopropylmethyl)piperazin-1-yl)phenyl)-5-fluoropyrazin-2-yl)-7-fluoroisoquinolin-1(2H)-one]
7 | 0.1 to 10 | > 1000 | Nc1nc(F)c(-c2ccc(N3CCN(CCC4CC4)CC3)cc2)nc1-c1cc(F)c2c(c1)CCNC2=O [Example I-26, 6-(3-amino-6-(4-(4-(2-cyclopropylethyl)piperazin-1-yl)phenyl)-5-fluoropyrazin-2-yl)-8-fluoro-3,4-dihydroisoquinolin-1(2H)-one]
8 | 0.1 to 10 | > 1000 | CCN1CCN(c2ccc(-c3nc(-c4ccc5c(=O)[nH]ccc5c4)c(N)nc3F)cc2)CC1 [Example I-32, 6-(3-amino-6-(4-(4-ethylpiperazin-1-yl)phenyl)-5-fluoropyrazin-2-yl)isoquinolin-1(2H)-one]
9 | 0.1 to 10 | > 1000 | Nc1nc(F)c(-c2ccc(N3CCOCC3)cc2)nc1-c1cc(F)c2c(=O)[nH]ccc2c1 [Example I-36, 6-(3-amino-5-fluoro-6-(4-morpholinophenyl)pyrazin-2-yl)-8-fluoroisoquinolin-1(2H)-one]
10 | 0.1 to 10 | > 1000 | CC(C)N1CCN(c2ccc(-c3nc(-c4ccc5c(=O)[nH]cnc5c4)c(N)nc3F)cc2)CC1 [Example I-37, 7-(3-amino-5-fluoro-6-(4-(4-isopropylpiperazin-1-yl)phenyl)pyrazin-2-yl)quinazolin-4(3H)-one]
11 | 11 to 100 | > 1000 | CC(C)N1CCN(c2ccc(-c3nc(-c4ccc5c(=O)[nH]ncc5c4)c(N)nc3F)cc2)CC1 [Example I-38, 6-(3-amino-5-fluoro-6-(4-(4-isopropylpiperazin-1-yl)phenyl)pyrazin-2-yl)phthalazin-1(2H)-one]
12 | 11 to 100 | > 1000 | Cc1nc2cc(-c3nc(-c4ccc(N5CCN(C(C)C)CC5)cc4)c(F)nc3N)ccc2c(=O)[nH]1 [Example I-39, 7-(3-amino-5-fluoro-6-(4-(4-isopropylpiperazin-1-yl)phenyl)pyrazin-2-yl)-2-methylquinazolin-4(3H)-one]
